Data published in patent US20140017336A1, “CO-ADMINISTRATION OF ARSENIC COMPOUNDS AND ANTI-HERPES VIRUS ANTI-VIRALS” (priority 2011, published 2014).
“Also recorded” adds a separate entry of the source.

How the values were obtained:
[1] = test system: EBV BMRF1 mRNA; assay: qRT-PCR of BMRF1 mRNA in CNE1<EBV-BX1> cells; format: cell-based, Epstein-Barr virus
[2] = test system: EBV BMRF1 mRNA; format: cell-based, Epstein-Barr virus; settings: within 72 hours, qRT-PCR
[3] = test system: uninfected parental A549 cells; settings: 4 days, 10 nM ATO, 40 μM GCV
[4] = test system: EBV Zta; assay: Western blot of Zta in MUTU1 cells; format: cell-based, Epstein-Barr virus; settings: 0, 10 nM, 100 nM ATO, day 3
[5] = test system: EBV immediate early protein Zta; assay: Zta immunofluorescence in EBV infected A549 cells; format: cell-based, Epstein-Barr virus
Protocol: A549 cells were plated on 8-chambered Lab-Tek slides at 3×10^4 cells per well; chemical treatment began 24 hours after plating. At specified time points, cells were rinsed twice with PBS and fixed in 4% paraformaldehyde (freshly diluted from 16%, Electron Microscopy Science, Hatfield, Pa.) for 10 min at room temperature. The cells were then rinsed twice with PBS and permeabilized with 0.5% Triton™ X100 (Sigma) in PBS for 15 min at room temperature. Primary antibodies were applied at specified concentrations overnight in a humidified chamber at 4° C. Following 3 rinses in PBS, secondary antibodies were diluted 1:500 and applied for 1 hour at room temperature. The chambers were removed and Vectashield® with DAPI (Vector Laboratories, Burlingame, Calif. #H1200) was applied with cover slip mount. […]
To investigate the ability of ATO to disrupt PML NB in EBV infected A549 cells, cells were treated with varying doses of ATO for 24 hours and PML NBs were imaged. […] To assess whether EBV positivity affected PML protein levels, cell fractions from two separate EBV infections (A549<EBV>2C and A549<EBV>3A) and uninfected parental A549 cells were analyzed by western blot. […] To quantify the increase in Zta expression, mRNA isolated from A549<EBVBX1>3A cells treated with varying doses of ATO for 72 hours was analyzed by qRT-PCR. […]

[6] = test system: LCL<EBV1-13> cells; format: cell-based, human; settings: 45 μM GCV, 1.0 nM ATO
[7] = test system: EBV Zta; assay: Western blot of Zta in EBV-negative MUTU cells; format: cell-based, Epstein-Barr virus; settings: 0, 10 nM, 100 nM ATO, day 3
[8] = test system: Zta mRNA; assay: Zta mRNA transcription in LCL<EBV1-13> cells; format: cell-based, Epstein-Barr virus; settings: three days, 10 nM ATO
Protocol: (§1) FIGS. 8A-D. B-cells recently isolated from a patient were infected with EBV, allowed to grow out for several generations (only the EBV-infected cells would be able to grow out), and frozen until use. FIGS. 8A and B. FIGS. 8A and B graph the relative percent of viability of EBV-infected B-cells as just described (LCL<EBV1-13> cells) thawed and grown in one of: media alone (“control”), media and 45 μM ganciclovir (GCV), media and […] arsenic trioxide (ATO), or media and a combination of these concentrations of GCV and ATO. The bars show the relative viability of cells after 2 days of this treatment (“2 D,” FIG. 8A), and at three days (“3 D,” FIG. 8B). FIG. 8C. Epstein-Barr nuclear antigen (“EBNA”) driven by the C promoter (“Cp”) is transcribed only during the latent phase of the virus. FIG. 8C graphs the relative expression of EBNA Cp mRNA of LCL<EBV1-13> cells grown three days (“3 D”) in media alone (“control”), media and 45 μM ganciclovir (GCV), media and 10 nM arsenic trioxide (ATO), or media and a combination of these concentrations of GCV and ATO. […] FIG. 8D. FIG. 8D graphs the relative transcription of the viral immediate early protein Zta mRNA of LCL<EBV1-13> cells grown three days (“3 D”) in media alone (“control”), media and 45 μM ganciclovir (GCV), media and 10 nM arsenic trioxide (ATO), or media and a combination of these concentrations of GCV and ATO. […]

[9] = test system: MUTU1<DNE1> cells (EBV-negative); assay: Viable cell count (trypan blue exclusion), MUTU1<DNE1> cells; format: cell-based, human; settings: 10 nM or 100 nM ATO, 2 and 3 days
[10] = test system: EBNA Cp mRNA; assay: EBNA Cp mRNA expression in LCL<EBV1-13> cells; format: cell-based, Epstein-Barr virus; settings: three days, 10 nM ATO
Protocol: as §1

[11] = test system: A549<EBVBX1>3A cells; assay: Annexin V/propidium iodide viability, EBV infected A549 cells; settings: 4 days

Question: With arsenic trioxide [ATO] as the substance, how does the “ATO dose inducing upregulation of BMRF1 mRNA” value ([1]; 48 hours, 'as low as', to a lesser extent than ZTA) read?
Answer: 1.25 nM

Question: What about the “BMRF1 mRNA expression compared to control” value ([1]; 4 days, 1 nM ATO and/or 40 μM GCV) of the same substance?
Answer: increased

Question: And the “ATO dose inducing BMRF1 mRNA” value [2]?
Answer: ≥ 12.5 nM

Question: And the “viability of uninfected parental cells” value [3]?
Answer: did not affect the viability; also recorded: no effect on the viability

Question: What about the “Zta expression (Western blot), EBV positive MUTU cells” value [4] of the same substance?
Answer: markedly enhanced reactivation of the EBV lytic cycle; also recorded: show Zta expression

Question: What about the “cells staining positively for Zta” value ([5]; day 8, 10 nM ATO plus or minus GCV) of the same substance?
Answer: 100%

Question: What about the “number of Zta positive cells, dose response” value ([5]; varying doses of ATO, 72 hours (3 days), two separate EBV infections of A549 cells) of the same substance?
Answer: increase in the number of Zta positive cells in an ATO dose responsive manner; also recorded: increases the number of Zta positive cells in a dose dependent manner

Question: And the “viable cells after a third day of treatment compared with two days” value [6]?
Answer: barely changed

Question: What about the “Zta expression (Western blot), EBV-negative MUTU cells” value [7] of the same substance?
Answer: absent; also recorded: no Zta expression

Question: And the “relative transcription of Zta mRNA” value [8]?
Answer: approximately fourfold higher

Question: What about the “viable cells, EBV-negative MUTU cells” value [9] of the same substance?
Answer: No effect

Question: What about the “relative expression of EBNA Cp mRNA” value [10] of the same substance?
Answer: drops dramatically

Question: What about the “percentage of annexin V positive cells” value ([11]; control 21%) of the same substance?
Answer: 58%

Question: And the “percentage of viable cells” value ([11]; EBV positive cells, control 67%)?
Answer: 35%
